Measurements taken from patent US7150974B1, “Parathyroid hormone receptor binding method” (The General Hospital Corporation, priority 1991, dated 2006).

Experiments:
[1] = molecular target: T1, opossum kidney PTH/PTHrP receptor clone, OK-H (Didelphis virginiana, UniProt P25107, I132F/S86P); test: Radioreceptor assay, COS cells expressing OK-H; format: binding; settings: FIG. 9
T1 construct: expressed in transfected cells; host or cells: COS cells, transient, plasmid OK-H (pcDNA I)
Protocol: (§1) In brief, the labeled peptide was dissolved in 0.1% trifluoracetic acid (TFA), applied to a C18 Sep-pak cartridge (Waters Associates, Inc., Milford, Mass.) and eluted with a solution of 60% acetonitrile in 0.1% TFA. After lyophilization, the radioligand then was applied to C18-μBondapak column (3.9 mm×30 cm. Waters Associates) and eluted over 30 min with a linear gradient of 30-50% acetonitrile-0.1% TFA at a flow rate of 2 ml/min.
(§2) COS-7 cells were grown in 15 cm plates in DMEM, 10% heat-inactivated […], 10 mg/L gentamycin until 80-90% confluent. Twenty-four hours after transfection by the DEAE/Dextran method (Sambrook et al., supra), with 1-2 μg of plasmid DNA, the cells were trypsinized and replated in multiwell plastic dishes (16 or 35 mm diameter, Costar, Cambridge, Mass.) at a cell concentration of 5×10^4 cells/cm^2). […] After continuing culture for another 48 h, radiorecepter assays were performed. The culture medium was replaced with buffer containing 50 mM Tris-HCL (pH 7.7), 100 mM NaCl, 2 mM CaCl2, 5 mM KCL, 0.5% heat-inactivated fetal bovine serum (GIBCO), and 5% heat-inactivated horse serum (KC Biological Inc., Lenexa, Kans.) immediately before studies were initiated.
(§3) Incubations were terminated by aspirating the buffer, and repeatedly (×3) washing the culture dishes, containing the adherent cells with chilled 0.9% NaCl solution, over a 15 sec period. Cell-bound radioactivity was recovered by the sequential addition (×3) of 1 N NaOH (200 μl) to each well. After 30 min at room temperature, the NaOH was transferred to a glass tube. A second and third extraction with 1 N NaOH (200 μl) were combined with the first, and the total radioactivity was counted in a γ-spectrometer (Packard Instruments, Downers Grove, Ill.).

[2] = molecular target: T2, human kidney PTH/PTHrP receptor (Homo sapiens, UniProt Q03431, L389Q); test: Intracellular free calcium, COS-7 cells expressing human receptor; format: cell-based
T2 construct: The full-length human kidney PTH/PTHrP receptor cDNA, HKrk, was constructed using the BamHI/PvuII fragment of PCR clone #2 and HK-2; expressed in transfected cells; host or cells: COS-7 cells, transient (DEAE/Dextran), pcDNAI
T2 sequence (Q03431 27-593 L389Q): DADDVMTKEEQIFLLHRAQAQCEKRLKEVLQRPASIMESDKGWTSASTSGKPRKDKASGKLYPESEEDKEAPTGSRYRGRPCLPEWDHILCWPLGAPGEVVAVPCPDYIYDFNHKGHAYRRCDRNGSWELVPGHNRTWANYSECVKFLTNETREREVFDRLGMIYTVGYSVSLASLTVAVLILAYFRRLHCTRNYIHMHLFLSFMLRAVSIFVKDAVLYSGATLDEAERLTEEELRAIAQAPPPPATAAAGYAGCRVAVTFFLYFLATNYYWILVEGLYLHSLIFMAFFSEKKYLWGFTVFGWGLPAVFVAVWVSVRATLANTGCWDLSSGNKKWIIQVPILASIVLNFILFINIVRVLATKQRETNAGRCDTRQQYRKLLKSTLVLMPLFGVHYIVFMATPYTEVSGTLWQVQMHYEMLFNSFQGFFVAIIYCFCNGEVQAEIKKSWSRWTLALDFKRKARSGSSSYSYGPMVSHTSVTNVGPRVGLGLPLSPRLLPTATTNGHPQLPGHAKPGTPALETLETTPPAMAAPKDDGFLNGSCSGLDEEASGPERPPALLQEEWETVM
Protocol: Details of the methodology are:
Coverslips plated with COS cells were incubated in Fura-2 AM loading buffer containing, in mM: HEPES (N-[2-Hydroxyethyl]piperazine-N′-[2-ethanesulfonic acid]), 20; CaCl2, 1; KCl 5; NaCl, 145; MgSO4, 0.5; NaHCO3, 25; K2HPO4, 1.4; glucose, 10; and Fura-2 AM 91-(2-5′-carboxyoxazol-2′-yl)-6-aminobenzofuran-5oxy-(2′-amino-5′-methylphenoxy)ethane-N,N,N′,N′-tetraaecetic acid acetomethoxy ester), 0.5; at 37° C. at pH7.4, aerated with 95% air and 5% CO2 for 45 minutes. Cells loaded with Fura-2 AM were then washed with a modified Krebs-Heinseleit (KH) buffer containing, in mM: HEPES, 20; CaCl2, 1; KCl, 5; NaCl, 145; MgSO4, 0.5; Na2HPO4, 1; glucose, 5; pH7.4. To check that cleavage of the ester occurred, the excitation spectra after different times of Fura-2 AM incubation were measured.
To measure fluorescence of individual cells, the cover slips were placed in a microscope tissue chamber (Biophysica Technologies, Inc., MD). The chamber consisted of a shallow, sloped compartment made of Teflon with a silicone rubber seal. The cover slips served as the bottom of the chamber. A heater/cooler ring was encased in the silicone rubber which sealed the coverslip in place.

[3] = molecular target: T2, human kidney PTH/PTHrP receptor; test: Radioreceptor assay, COS-7 cells transiently expressing human kidney PTH/PTHrP receptor (HKrk); format: binding
Protocol: as §1, §2, §3

[4] = molecular target: T3, rat bone PTH/PTHrP receptor (Rattus norvegicus, UniProt P25961, E586G); test: Radioreceptor assay, COS cells expressing rat bone PTH/PTHrP receptor (R15B); format: binding
T3 construct: expressed in transfected cells; host or cells: COS / COS-7 cells, transient, plasmid R15B (pcDNA I)
T3 sequence (P25961 27-591 E586G): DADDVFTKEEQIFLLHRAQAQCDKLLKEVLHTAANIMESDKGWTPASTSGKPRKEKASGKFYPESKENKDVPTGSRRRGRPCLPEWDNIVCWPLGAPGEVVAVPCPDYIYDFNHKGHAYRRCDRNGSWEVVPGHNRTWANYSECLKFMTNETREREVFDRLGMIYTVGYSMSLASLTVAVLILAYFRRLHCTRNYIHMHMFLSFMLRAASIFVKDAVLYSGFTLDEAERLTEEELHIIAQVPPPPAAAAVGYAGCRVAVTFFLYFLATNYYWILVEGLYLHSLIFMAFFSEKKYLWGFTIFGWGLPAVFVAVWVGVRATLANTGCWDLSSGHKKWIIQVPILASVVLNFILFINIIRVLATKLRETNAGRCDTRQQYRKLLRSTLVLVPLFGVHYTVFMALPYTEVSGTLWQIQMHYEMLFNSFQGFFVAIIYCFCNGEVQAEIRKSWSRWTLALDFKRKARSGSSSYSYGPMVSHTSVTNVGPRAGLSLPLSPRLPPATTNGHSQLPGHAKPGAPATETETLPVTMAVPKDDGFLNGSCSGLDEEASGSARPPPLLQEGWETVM
Protocol: as §1, §2, §3

T1 sequence (P25107 other isoform, or with tags, fused parts or gaps S86P/I132F): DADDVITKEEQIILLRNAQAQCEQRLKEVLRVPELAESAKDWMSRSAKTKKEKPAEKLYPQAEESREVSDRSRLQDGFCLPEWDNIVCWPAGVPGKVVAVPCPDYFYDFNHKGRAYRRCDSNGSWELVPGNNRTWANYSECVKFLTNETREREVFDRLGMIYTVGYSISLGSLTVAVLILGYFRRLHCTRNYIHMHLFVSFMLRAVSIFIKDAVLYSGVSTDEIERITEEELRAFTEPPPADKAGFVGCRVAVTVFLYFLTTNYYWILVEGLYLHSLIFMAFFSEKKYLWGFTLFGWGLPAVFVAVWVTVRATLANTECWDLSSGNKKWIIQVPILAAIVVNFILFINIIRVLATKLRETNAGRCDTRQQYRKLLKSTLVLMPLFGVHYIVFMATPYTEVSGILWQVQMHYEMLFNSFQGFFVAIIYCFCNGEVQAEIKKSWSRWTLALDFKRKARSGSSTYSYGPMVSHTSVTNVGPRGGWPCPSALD

## [Nle^8,18, Tyr^34]bPTH(1-34)amide
[1]
  inhibition of 125I-PTHrP binding by competitor: inhibited
[2]
  increase in intracellular free calcium, PTH(1-34) compared with PTHrP(1-36): to the same extent
[3]; human versus rat receptor
  fold higher apparent Kd, human versus rat bone PTH/PTHrP receptor: 2 fold
[3]; radiolabelled ligand ~200,000 cpm, COS-7 cells transfected with cloned human PTH/PTHrP receptor
  specific binding of radiolabelled ligand: 10.1±3.7%
[4]; COS cells expressing R15B, FIG. 13
  inhibition of 125I-PTHrP binding by competitor: inhibited
[4]; radiolabelled ligand ~200,000 cpm, COS-7 cells expressing R15B
  specific binding of radiolabelled ligand: 8.1 ± 3.5%
